{"source": "paper PMC6412891", "about": "“Synthesis and Biological Evaluation of Novel Thiazolyl-Coumarin Derivatives as Potent Histone Deacetylase Inhibitors with Antifibrotic Activity” (Molecules, 2019)", "key": {"HDAC6 human recombinant": {"molecular_target": "T1, HDAC6 human recombinant (Homo sapiens, UniProt Q9UBN7)", "T1 construct": "purchased Enzo Life Science BML-AK516", "T1 sequence (Q9UBN7 1-1215)": "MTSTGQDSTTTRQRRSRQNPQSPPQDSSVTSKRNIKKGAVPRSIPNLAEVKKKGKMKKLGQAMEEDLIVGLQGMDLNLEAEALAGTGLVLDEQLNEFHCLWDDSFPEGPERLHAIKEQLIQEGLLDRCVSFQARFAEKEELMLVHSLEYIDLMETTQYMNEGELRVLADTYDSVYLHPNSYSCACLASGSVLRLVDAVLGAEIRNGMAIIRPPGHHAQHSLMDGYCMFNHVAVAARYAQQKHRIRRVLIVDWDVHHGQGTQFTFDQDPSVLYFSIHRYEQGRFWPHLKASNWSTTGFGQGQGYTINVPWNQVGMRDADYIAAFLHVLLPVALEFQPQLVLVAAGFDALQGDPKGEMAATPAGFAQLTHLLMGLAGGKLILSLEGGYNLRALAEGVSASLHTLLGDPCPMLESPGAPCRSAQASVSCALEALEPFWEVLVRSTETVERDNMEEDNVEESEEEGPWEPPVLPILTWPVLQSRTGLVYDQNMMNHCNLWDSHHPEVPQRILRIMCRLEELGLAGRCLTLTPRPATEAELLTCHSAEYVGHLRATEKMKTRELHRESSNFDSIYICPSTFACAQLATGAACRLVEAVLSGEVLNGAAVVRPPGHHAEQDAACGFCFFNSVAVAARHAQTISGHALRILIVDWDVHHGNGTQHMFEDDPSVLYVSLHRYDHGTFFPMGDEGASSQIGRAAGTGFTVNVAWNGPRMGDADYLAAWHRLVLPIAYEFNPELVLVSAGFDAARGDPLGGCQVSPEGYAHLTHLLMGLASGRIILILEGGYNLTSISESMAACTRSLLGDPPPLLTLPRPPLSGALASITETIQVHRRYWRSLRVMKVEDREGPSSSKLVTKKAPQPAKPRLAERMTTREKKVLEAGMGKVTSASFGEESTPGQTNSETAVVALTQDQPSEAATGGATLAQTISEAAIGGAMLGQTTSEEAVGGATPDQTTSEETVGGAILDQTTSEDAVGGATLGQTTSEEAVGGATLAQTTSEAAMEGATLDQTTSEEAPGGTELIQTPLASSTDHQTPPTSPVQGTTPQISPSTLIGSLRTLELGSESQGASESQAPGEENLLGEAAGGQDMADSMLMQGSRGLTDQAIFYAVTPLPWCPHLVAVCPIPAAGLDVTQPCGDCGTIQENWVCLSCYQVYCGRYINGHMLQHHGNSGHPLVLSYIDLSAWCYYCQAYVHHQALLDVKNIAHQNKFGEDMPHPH", "assay": "HDAC6 inhibitory activity, fluorometric kit", "format": "biochemical", "conditions": "Class II"}, "[1]": {"test_system": "neonatal rat cardiac fibroblasts (CFs)", "assay": "FBS-induced cardiac fibroblast proliferation assay (Alamar Blue)", "format": "cell-based", "conditions": "10% FBS-induced CF proliferation, 48 h, read-out: Inhibition percentage of cell proliferation"}}}
{"smiles": "O=C(CCCCC1CCSS1)Nc1nc(-c2cc3ccccc3oc2=O)cs1", "note": "(stereo not shown) [Compound 5a, 5-[1,2]-Dithiolan-3-yl-N-[4-(2-oxo-2H-chromen-3-yl)-thiazol-2-yl]-pentanamide]", "values": [{"measurement": "IC50", "setting": "HDAC6 human recombinant", "value": "153 ± 5.3", "unit": "nM"}, {"measurement": "inhibition at 1 µM", "setting": "[1]", "value": "57.3 ± 6.7", "unit": "%"}, {"measurement": "inhibition at 5 µM", "setting": "[1]", "value": "70.7 ± 7.1", "unit": "%"}, {"measurement": "inhibition at 10 µM", "setting": "[1]", "value": "92.8 ± 6.4", "unit": "%"}]}
{"smiles": "O=C(Nc1nc(-c2cc3ccccc3oc2=O)cs1)c1ccc(O)c(O)c1", "note": "[Compound 6a]", "values": [{"measurement": "IC50", "setting": "HDAC6 human recombinant", "value": "276 ± 20.9", "unit": "nM"}, {"measurement": "inhibition at 1 µM", "setting": "[1]", "value": "3 ± 3.9", "unit": "%"}, {"measurement": "inhibition at 5 µM", "setting": "[1]", "value": "35 ± 1.9", "unit": "%"}, {"measurement": "inhibition at 10 µM", "setting": "[1]", "value": "60.6 ± 1.9", "unit": "%"}]}
{"smiles": "O=C(CCCCC(=O)Nc1nc(-c2cc3ccccc3oc2=O)cs1)NO", "note": "[Compound 8a, 5-[4-(2-Oxo-2H-chromen-3-yl)-thiazol-2-yl-carbamoyl]-N-hydroxypentanamide]", "values": [{"measurement": "IC50", "setting": "HDAC6 human recombinant", "value": "98.3 ± 3.5", "unit": "nM"}, {"measurement": "inhibition at 1 µM", "setting": "[1]", "value": "59.4 ± 6.1", "unit": "%"}, {"measurement": "inhibition at 5 µM", "setting": "[1]", "value": "79.9 ± 9.7", "unit": "%"}, {"measurement": "inhibition at 10 µM", "setting": "[1]", "value": "94.4 ± 3.8", "unit": "%"}]}
{"smiles": "O=C(O)CCCCC(=O)Nc1nc(-c2cc3ccccc3oc2=O)cs1", "note": "[Compound 7a]", "values": [{"measurement": "IC50", "setting": "HDAC6 human recombinant", "value": "5590 ± 184", "unit": "nM"}, {"measurement": "inhibition at 1 µM", "setting": "[1]", "value": "0.5 ± 0.1", "unit": "%"}, {"measurement": "inhibition at 5 µM", "setting": "[1]", "value": "26.8 ± 5.9", "unit": "%"}, {"measurement": "inhibition at 10 µM", "setting": "[1]", "value": "45 ± 5.1", "unit": "%"}]}
